Laboratory results published in patent publication US20110059953A1, “COMPOUNDS FOR USE IN STABILIZING P53 MUTANTS” (priority 2008, published 2011).

Key:
T-p53C-Y220C [1] = biological target: T1, T-p53C-Y220C (Homo sapiens, UniProt P04637, M133L/N239Y/N268D/V203A/Y220C); test: 1H/15N-HSQC NMR chemical shift binding (KD NMR)
T1 construct: For all other experiments, the DNA coding for residues 94-312 of T-p53C was inserted into a modified pET24a(+) vector; 6xHis tag + B. stearothermophilus dihydrolipoyl acetyltransferase lipoyl domain (aa 1-85) + TEV site (N, cleaved yes); made in house; host or cells: Escherichia coli BL21 (DE3) or C41 (DE3)
Description: Uniformly ^15N-labelled core domains of T-p53C-Y220C was expressed and purified according to the above described protocol. The low molecular-weight compounds were dissolved in d^6-DMSO to make 10 mM stock solutions. To screen compound mixtures by chemical shift mapping, 10 μl of each of 4 different compounds were mixed together and 25 μl of this mixture was added to 25 μl of D2O and 500 μl of 70 μM T-p53C-Y220C (in 25 mM NaPi, 150 mM NaCl and 5 mM DTT, pH 7.2 ). […] NMR samples were freshly prepared and kept sealed under argon after degassing by repeated cycles of pumping the NMR tube under low pressure (while gently tapping the tube) and returning to atmospheric pressure using a stream of argon gas. This was done to maintain sample stability.
Using Bruker's TopSpin 2.0 software, the number of complex points in t1 was doubled by forward complex linear prediction and shifted squared sine bell window functions were applied to both dimensions prior to zero filling and Fourier transformation. A digital resolution of 2.0 Hz/point in the ^1H frequency dimension and 4.7 Hz/point in the ^15N frequency dimension was used. […] An in-house script was used to analyse chemical shift differences and map these onto PDB protein structures.
For certain compounds an array of different concentrations were used to derive KD values (KD NMR) by fitting a saturation binding equation (Δδ=c+a*[L]/(KD+[L])) to the concentration-dependent chemical shift changes of the relevant shifting peaks.

T-p53C-Y220C [2] = biological target: T1, T-p53C-Y220C; test: Equilibrium sedimentation analytical ultracentrifugation (AUC) binding
Description: Analytical centrifugation studies the distribution of molecules under gravity force. In equilibrium sedimentation experiment the solute concentrates at the bottom of the cell and forms a concentration gradient. The steepness of this gradient depends on the molecular weight of the solute, the heavier the molecule the steeper the gradient. Small molecules have a molecular weight around 500 Da, and p53 core domain is large protein molecule of 24.5 kDa. Under the experimental conditions chosen, small molecules form a very shallow, practically negligible gradient, while p53 presents a very well defined sedimentation profile. […] By monitoring the distribution of the small molecule via absorbance at wavelengths above 300 nm (the ligands must absorb light in this spectral range for the method to work) so that signal is not affected by the absorbance of the protein (e.g., 310, 340 and 380 nm), it is possible to determine if the small molecule binds to the protein, and in many cases measure the dissociation constant. […]
Equilibrium sedimentation experiments were performed on a Beckman XL-I ultracentrifuge using Ti-50 rotor and 6-sector cells. at speeds of 30,000 and 40,000 rpm at 10° C. Up to 21 samples were analysed simultaneously. […] The samples contained ligand at concentration of 15 μM-40 μM, with absorbance of 0.3-0.5 at one of the selected wavelengths and 100 μM T-p53-Y220C.

T-p53C-Y220C [3] = biological target: T1, T-p53C-Y220C; test: Thermal denaturation using capillary DSC; format: binding
Description: Differential Scanning calorimetry (DSC) was used to probe the stabilising effect of the ligands on […]. For a reversible two-state system, the melting temperature, Tm, is the transition temperature where the folded and unfolded states are equally populated.
DSC experiments were performed using a Microcal VP-Capillary DSC instrument (Microcal, Amherst, Mass.) with an active cell volume of ˜125 μl. Protein samples were buffer exchanged into 25 mM NaPi, pH 7.2, 150 mM NaCl, 5 mM DTT. This buffer + the respective concentration of ligand/DMSO was used for baseline scans, so that the only difference between sample and reference cell or sample cell in the measurement and both cells in the baseline scan is the presence of the protein. A final concentration of 20 μM T-p53C-Y220C was used. A pressure of 2.5 bars (nitrogen) was applied to the cell. Temperatures from 10 to 85° C. were scanned at a rate of 250° C./h, with a filtering period of 4 seconds and feedback gain/mode set at medium. Data were analysed with ORIGIN software (Microcal).
The following tables show the results of the thermal denaturation studies using capillary DSC, where ΔTm is the increase in Tm on adding 250 μM of the test compound. The Dunnett significance test (P) value given is the calculated probability that the change in Tm is insignificant.

T-p53C-Y220C [4] = biological target: T1, T-p53C-Y220C; test: Thermal denaturation using fluorescence (Sypro Orange); format: binding; settings: further studies on compounds described above; 10 μM protein
Description: This was by an adaption of the classical procedure (e.g. ref A6). Thermal unfolding was monitored by the binding of the dye Sypro Orange (5×) using a Rotor-gene 6000 (Corbett Life Science) at 270 K/h in 25 mM NaPi, 150 mM NaCl and 5 mM DTT, pH 7.2 with a protein concentration of 10 μM.
(§1) Where listed, S.E. is the calculated standard error.
as §1

Kd (T-p53C-Y220C [1]; KD (@ 20° C.) μM, further NMR studies, some revised values): 114 µM
Kd (T-p53C-Y220C [1]; KD (@ 20° C.), 1H/15N-HSQC): 167 µM
Kd (T-p53C-Y220C [2]): 170 µM
Kd (T-p53C-Y220C [3]; at 316-318 K, read-out: approximate KD from DSC stabilization fit): ~140 µM
ΔTm (T-p53C-Y220C [3]; increase in Tm on adding 250 μM of the test compound, 20 μM protein): 0.75 °C
ΔTm (° C.) (T-p53C-Y220C [4]): 0.76 °C
Compound: CCn1c2ccccc2c2cc(CNC)ccc21 [PK083]
